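The compound was tested at five concentrations on cells cultured in 96-well plates, with a 48-hour exposure period. TGI is the concentration that stops growth completely.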
Columns and labels:
Assay in all cases: NCI-60 cell line screen, 48 h
M14 melanoma = test system: M14 melanoma
NCI-H226 lung = test system: NCI-H226 lung
NCI-H522 lung = test system: NCI-H522 lung
HT29 colon = test system: HT29 colon
UACC-257 melanoma = test system: UACC-257 melanoma
U251 CNS = test system: U251 CNS
LOX IMVI melanoma = test system: LOX IMVI melanoma
ACHN renal = test system: ACHN renal
SNB-19 CNS = test system: SNB-19 CNS
OVCAR-5 ovarian = test system: OVCAR-5 ovarian
RPMI-8226 leukemia = test system: RPMI-8226 leukemia
MCF7 breast = test system: MCF7 breast
SK-MEL-28 melanoma = test system: SK-MEL-28 melanoma
SW-620 colon = test system: SW-620 colon
MDA-N = test system: MDA-N
BT-549 breast = test system: BT-549 breast
NCI-H460 lung = test system: NCI-H460 lung
T-47D breast = test system: T-47D breast
SN12C renal = test system: SN12C renal
NCI-H23 lung = test system: NCI-H23 lung
HCC-2998 colon = test system: HCC-2998 colon
HL-60(TB) leukemia = test system: HL-60(TB) leukemia
DU-145 prostate = test system: DU-145 prostate
K-562 leukemia = test system: K-562 leukemia
786-0 renal = test system: 786-0 renal
SK-MEL-5 melanoma = test system: SK-MEL-5 melanoma
HCT-15 colon = test system: HCT-15 colon
RXF 393 renal = test system: RXF 393 renal
CCRF-CEM leukemia = test system: CCRF-CEM leukemia
UACC-62 melanoma = test system: UACC-62 melanoma
SR leukemia = test system: SR leukemia
KM12 colon = test system: KM12 colon
SK-MEL-2 melanoma = test system: SK-MEL-2 melanoma
SF-295 CNS = test system: SF-295 CNS
IGROV1 ovarian = test system: IGROV1 ovarian
SF-268 CNS = test system: SF-268 CNS
COLO 205 colon = test system: COLO 205 colon
OVCAR-8 ovarian = test system: OVCAR-8 ovarian
MDA-MB-435 = test system: MDA-MB-435
MOLT-4 leukemia = test system: MOLT-4 leukemia
OVCAR-4 ovarian = test system: OVCAR-4 ovarian
HOP-92 NSCLC = test system: HOP-92 NSCLC
HS 578T breast = test system: HS 578T breast
UO-31 renal = test system: UO-31 renal
SNB-75 CNS = test system: SNB-75 CNS
MALME-3M melanoma = test system: MALME-3M melanoma
A549 NSCLC = test system: A549 NSCLC
TK-10 renal = test system: TK-10 renal
MDA-MB-231 breast = test system: MDA-MB-231 breast
OVCAR-3 ovarian = test system: OVCAR-3 ovarian
SF-539 CNS = test system: SF-539 CNS
HOP-62 NSCLC = test system: HOP-62 NSCLC
CAKI-1 renal = test system: CAKI-1 renal
PC-3 prostate = test system: PC-3 prostate
SK-OV-3 ovarian = test system: SK-OV-3 ovarian
A498 renal = test system: A498 renal
EKVX NSCLC = test system: EKVX NSCLC
HCT-116 colon = test system: HCT-116 colon

Compound CC1CC(=O)NC2CC1C2(C)C (stereo unspecified) has a TGI (M14 melanoma) of over 100 µM, a TGI (NCI-H226 lung) of over 100 µM and a TGI (NCI-H522 lung) of over 100 µM. The TGI (HT29 colon) was over 100 µM, the TGI (UACC-257 melanoma) was over 100 µM and the TGI (U251 CNS) was over 100 µM. It also gave a TGI (LOX IMVI melanoma) of over 100 µM, a TGI (ACHN renal) of over 100 µM and a TGI (SNB-19 CNS) of over 100 µM. The TGI (OVCAR-5 ovarian) was over 100 µM, the TGI (RPMI-8226 leukemia) was over 100 µM and the TGI (MCF7 breast) was over 100 µM. For the same compound, the TGI (SK-MEL-28 melanoma) was over 100 µM, the TGI (SW-620 colon) was over 100 µM and the TGI (MDA-N) was over 100 µM. The TGI (BT-549 breast) was over 100 µM, the TGI (NCI-H460 lung) was over 100 µM and the TGI (T-47D breast) was over 100 µM. For the same compound, the TGI (SN12C renal) was over 100 µM, the TGI (NCI-H23 lung) was over 100 µM and the TGI (HCC-2998 colon) was over 100 µM. It also gave a TGI (HL-60(TB) leukemia) of over 100 µM, a TGI (DU-145 prostate) of over 100 µM and a TGI (K-562 leukemia) of over 100 µM. It also gave a TGI (786-0 renal) of over 100 µM, a TGI (SK-MEL-5 melanoma) of over 100 µM and a TGI (HCT-15 colon) of over 100 µM. The TGI (RXF 393 renal) was over 100 µM, the TGI (CCRF-CEM leukemia) was over 100 µM and the TGI (UACC-62 melanoma) was over 100 µM. The TGI (SR leukemia) was over 100 µM, the TGI (KM12 colon) was over 100 µM and the TGI (SK-MEL-2 melanoma) was over 100 µM. It also gave a TGI (SF-295 CNS) of over 100 µM, a TGI (IGROV1 ovarian) of over 100 µM and a TGI (SF-268 CNS) of over 100 µM. It also gave a TGI (COLO 205 colon) of over 100 µM, a TGI (OVCAR-8 ovarian) of over 100 µM and a TGI (MDA-MB-435) of over 100 µM. It also gave a TGI (MOLT-4 leukemia) of over 100 µM, a TGI (OVCAR-4 ovarian) of over 100 µM and a TGI (HOP-92 NSCLC) of over 100 µM. It also gave a TGI (HS 578T breast) of over 100 µM, a TGI (UO-31 renal) of over 100 µM and a TGI (SNB-75 CNS) of over 100 µM. The TGI (MALME-3M melanoma) was over 100 µM, the TGI (A549 NSCLC) was over 100 µM and the TGI (TK-10 renal) was over 100 µM. For the same compound, the TGI (MDA-MB-231 breast) was over 100 µM and the TGI (OVCAR-3 ovarian) was over 100 µM.
For COc1cc(C2SC(N)=Nc3c2c(C)nn3C(=O)Cc2ccccc2)ccc1O (stereo unspecified), the TGI (SF-539 CNS) was over 100 µM, the TGI (M14 melanoma) was over 100 µM and the TGI (NCI-H226 lung) was over 100 µM. It also gave a TGI (HOP-62 NSCLC) of over 100 µM, a TGI (NCI-H522 lung) of over 100 µM and a TGI (HT29 colon) of over 100 µM. It also gave a TGI (UACC-257 melanoma) of over 100 µM, a TGI (LOX IMVI melanoma) of over 100 µM and a TGI (CAKI-1 renal) of over 100 µM. The TGI (ACHN renal) was over 100 µM, the TGI (SNB-19 CNS) was over 100 µM and the TGI (RPMI-8226 leukemia) was over 100 µM. It also gave a TGI (MCF7 breast) of over 100 µM, a TGI (SK-MEL-28 melanoma) of over 100 µM and a TGI (SW-620 colon) of over 100 µM. For the same compound, the TGI (MDA-N) was over 100 µM, the TGI (BT-549 breast) was over 100 µM and the TGI (NCI-H460 lung) was over 100 µM. It also gave a TGI (T-47D breast) of over 100 µM, a TGI (SN12C renal) of over 100 µM and a TGI (NCI-H23 lung) of over 100 µM. For the same compound, the TGI (HCC-2998 colon) was over 100 µM, the TGI (HL-60(TB) leukemia) was over 100 µM and the TGI (DU-145 prostate) was over 100 µM. It also gave a TGI (K-562 leukemia) of over 100 µM, a TGI (786-0 renal) of over 100 µM and a TGI (SK-MEL-5 melanoma) of over 100 µM. For the same compound, the TGI (HCT-15 colon) was over 100 µM, the TGI (CCRF-CEM leukemia) was over 100 µM and the TGI (UACC-62 melanoma) was over 100 µM. The TGI (SR leukemia) was over 100 µM, the TGI (KM12 colon) was over 100 µM and the TGI (SF-295 CNS) was over 100 µM. For the same compound, the TGI (IGROV1 ovarian) was over 100 µM, the TGI (PC-3 prostate) was over 100 µM and the TGI (SF-268 CNS) was over 100 µM. The TGI (COLO 205 colon) was over 100 µM, the TGI (SK-OV-3 ovarian) was over 100 µM and the TGI (A498 renal) was over 100 µM. For the same compound, the TGI (OVCAR-8 ovarian) was over 100 µM, the TGI (MDA-MB-435) was over 100 µM and the TGI (MOLT-4 leukemia) was over 100 µM. For the same compound, the TGI (EKVX NSCLC) was over 100 µM, the TGI (HCT-116 colon) was over 100 µM and the TGI (HS 578T breast) was over 100 µM. The TGI (UO-31 renal) was over 100 µM, the TGI (SNB-75 CNS) was 75.2 µM and the TGI (MALME-3M melanoma) was over 100 µM. It also gave a TGI (A549 NSCLC) of over 100 µM, a TGI (TK-10 renal) of over 100 µM and a TGI (MDA-MB-231 breast) of over 100 µM.

Source: PubChem BioAssay (NCI)
